Source: patent publication US20250115571A1, “OXOPIPERAZINE DERIVATIVES” (Inthera Bioscience AG, priority 2017, published 2025)

How the values were obtained:
22RV1 = experiment: 5-day cell proliferation assay (CTG); assay type: cell-based; settings: Homo sapiens, 120 h, 22RV1, Prostate
Experimental: (§1) For screening using a proliferation assay, the cells used were cultured at 37° C. with 5% CO2, except for those being cultured with L-15 medium (37° C. and 100% air, TABLE 7). Compound stock solutions (10 mM) were made in sterile water, aliquoted and stored at room temperature. Cisplatin was used as reference Control. Plastic consumables, culture media and supplements were purchased from well-known suppliers (TABLE 8).
(§2) Cell seeding (day −1). When necessary, cells were trypsinized using standard methods (see e.g. example 01). Cells were collected and resuspended in 5-6 mL of appropriate culture medium, counted and diluted to the needed density. Fifty-four μl (microliter) cells were seeded per well in a 384-well plate. Extra four wells per cell line were seeded on an additional plate for Day 0 reading (baseline cell density). Cells were incubated at 37° C. overnight.
(§3) Compound treatment and Day 0 reading (day 0). Tenfold final concentration of test compounds and Cisplatin were prepared in cell culture media (work dilutions). Six μl of work dilution solutions were dispensed into the corresponding wells in 384-well plates to bring the total volume up to 60 μl. Conditions were tested in triplicate. The plates were then incubated at 37° C. for five days. For the day 0 reading, 30 μl of CTG and 6 μl cell culture medium were added to the day 0 plates, contents mixed for 2 min on a plate shaker, and the plates incubated for 10 min at room temperature in the dark. Luminescence was recorded on an EnVision Multi Label Reader (2104-0010A, PerkinElmer, USA).
(§4) Endpoint CTG reading (day 5). The amounts of cells in the plates was determined by endpoint CTG-test. Thirty μl of CTG were added to the 60 μl of cell culture per well, contents mixed for 2 min on a plate shaker, and the plates incubated for 10 min at room temperature in the dark. Luminescence was recorded on an EnVision Multi Label Reader.
(§5) Data analysis. Fifty percent growth inhibition concentrations (GI50) were calculated based on percentage of control data (untreated cells) from each cell line (TABLE 5 (this example) and TABLE 6). Curves were fitted using a nonlinear regression model with a sigmoidal dose response. Examples of obtained curves are depicted in FIG. 2A-2F.

786-O = experiment: 5-day cell proliferation assay (CTG); assay type: cell-based; settings: Homo sapiens, 786-0, 120 h, Kidney
Experimental: as §1, §2, §3, §4, §5

AU565 = experiment: 5-day cell proliferation assay (CTG); assay type: cell-based; settings: Homo sapiens, 120 h, AU565, Breast
Experimental: as §1, §2, §3, §4, §5

BT474 = experiment: 5-day cell proliferation assay (CTG); assay type: cell-based; settings: Homo sapiens, BT-474, 120 h, BT474, Breast
Experimental: as §1, §2, §3, §4, §5

Caki 2 = experiment: 5-day cell proliferation assay (CTG); assay type: cell-based; settings: Homo sapiens, 120 h, Caki 2, Kidney
Experimental: as §1, §2, §3, §4, §5

DoTc2 4510 = experiment: 5-day cell proliferation assay (CTG); assay type: cell-based; settings: Homo sapiens, 120 h, DoTc2 4510, Cervix
Experimental: as §1, §2, §3, §4, §5

Granta-519 = experiment: 5-day cell proliferation assay (CTG); assay type: cell-based; settings: Homo sapiens, 120 h, Granta-519, Lymphoma
Experimental: as §1, §2, §3, §4, §5

HCC2935 = experiment: 5-day cell proliferation assay (CTG); assay type: cell-based; settings: Homo sapiens, 120 h, HCC2935, Lung, highest tested concentration 10 μM
Experimental: as §1, §2, §3, §4, §5

HCC4006 = experiment: 5-day cell proliferation assay (CTG); assay type: cell-based; settings: Homo sapiens, 120 h, HCC4006, Lung
Experimental: as §1, §2, §3, §4, §5

HL-60 = experiment: 5-day cell proliferation assay (CTG); assay type: cell-based; settings: Homo sapiens, 120 h, HL-60, Leukemia
Experimental: as §1, §2, §3, §4, §5

HUH-7 = experiment: 5-day cell proliferation assay (CTG); assay type: cell-based; settings: Homo sapiens, 120 h, HUH-7, Liver
Experimental: as §1, §2, §3, §4, §5

Hep G2 = experiment: 5-day cell proliferation assay (CTG); assay type: cell-based; settings: Homo sapiens, HepG2, 120 h, Hep G2, Liver
Experimental: as §1, §2, §3, §4, §5

KARPAS-299 = experiment: 5-day cell proliferation assay (CTG); assay type: cell-based; settings: Homo sapiens, 120 h, KARPAS-299, Lymphoma
Experimental: as §1, §2, §3, §4, §5

KARPAS-422 = experiment: 5-day cell proliferation assay (CTG); assay type: cell-based; settings: Homo sapiens, 120 h, KARPAS-422, Lymphoma
Experimental: as §1, §2, §3, §4, §5

KYSE-270 = experiment: 5-day cell proliferation assay (CTG); assay type: cell-based; settings: Homo sapiens, 120 h, KYSE-270, Oesophagus
Experimental: as §1, §2, §3, §4, §5

LNCaP-FGC = experiment: 5-day cell proliferation assay (CTG); assay type: cell-based; settings: Homo sapiens, 120 h, Prostate
Experimental: as §1, §2, §3, §4, §5

MKN-1 = experiment: 5-day cell proliferation assay (CTG); assay type: cell-based; settings: Homo sapiens, 120 h, MKN-1, Stomach/Gastric
Experimental: as §1, §2, §3, §4, §5

MKN-45 = experiment: 5-day cell proliferation assay (CTG); assay type: cell-based; settings: Homo sapiens, 120 h, MKN-45, Stomach/Gastric
Experimental: as §1, §2, §3, §4, §5

MOLT-4 = experiment: 5-day cell proliferation assay (CTG); assay type: cell-based; settings: Homo sapiens, 120 h, MOLT-4, Leukemia
Experimental: as §1, §2, §3, §4, §5

OVCAR-3 = experiment: 5-day cell proliferation assay (CTG); assay type: cell-based; settings: Homo sapiens, 120 h, OVCAR-3, Ovary
Experimental: as §1, §2, §3, §4, §5

PANC-1 = experiment: 5-day cell proliferation assay (CTG); assay type: cell-based; settings: Homo sapiens, 120 h, PANC-1, Pancreas
Experimental: as §1, §2, §3, §4, §5

PC-3 = experiment: 5-day cell proliferation assay (CTG); assay type: cell-based; settings: Homo sapiens, 120 h, PC-3, Prostate
Experimental: as §1, §2, §3, §4, §5

VCAP = experiment: 5-day cell proliferation assay (CTG); assay type: cell-based; settings: Homo sapiens, 120 h, Prostate
Experimental: as §1, §2, §3, §4, §5

[1] = system: Vascular Endothelial Growth Factor A (VEGF); experiment: Tumor VEGF protein (ELISA) in HCT-116 colorectal cancer cell-derived xenograft; assay type: in vivo, mouse; settings: HCT-116 xenograft, approximately 4 weeks of treatment with 3 mg/kg or 6 mg/kg
Experimental: (§6) Mice from groups 1, 2, 4 and 5 of the HCT-116 colorectal cancer model (TABLE 12, EXAMPLE 324) and MKN45 gastric cancer model (TABLE 14, EXAMPLE 325) were used to analyze tumor Vascular Endothelial Growth Factor A (VEGF) protein expression at the end of the experiment. Tumors homogenates were prepared using a 2× Lysis Buffer (RayBiotech Life, Norcross, GA, USA) according to manufacturer's instructions. VEGF was quantified in 50 micrograms tumor by ELISA (Human VEGF Quantikine ELISA Kit, R&D Systems) according to manufacturer's instructions.

[2] = system: Vascular Endothelial Growth Factor A (VEGF); experiment: Tumor VEGF protein (ELISA) in MKN45 gastric cancer cell-derived xenograft; assay type: in vivo, mouse; settings: approximately 3 weeks of treatment with 3 mg/kg or 6 mg/kg, effect less evident than in HCT-116
Experimental: as §6

CC(C)C[C@@H]1NCCN([C@@H](CC(C)C)C(=O)N2CCC3(C[C@@H]2C)OCC(CN2CCCC2)CO3)C1=O (stereo partly drawn) [Compound 258, (3S)-1-[(2S)-4-methyl-1-oxo-1-[(3s,6s,8S)-8-methyl-3-(pyrrolidin-1-ylmethyl)-1,5-dioxa-9-azaspiro[5.5]undec-an-9-yl]pentan-2-yl]-3-(2-methylpropyl)piper-azin-2-one (^≠), isomer Z]
GI50 (22RV1): 9 nM | GI50 (786-O): 28 nM | GI50 (AU565): 3 nM | GI50 (BT474): 72 nM | GI50 (Caki 2): 14 nM | GI50 (DoTc2 4510): 14 nM | GI50 (Granta-519): 38 nM | GI50 (HCC2935): > 10000 nM | GI50 (HCC4006): 8 nM | GI50 (HL-60): 5 nM | GI50 (HUH-7): 10 nM | GI50 (Hep G2): 6 nM | GI50 (KARPAS-299): 5 nM | GI50 (KARPAS-422): 48 nM | GI50 (KYSE-270): 44 nM | GI50 (LNCaP-FGC): 2 nM | GI50 (MKN-1): 2 nM | GI50 (MKN-45): 4 nM | GI50 (MOLT-4): 9 nM | GI50 (OVCAR-3): 44 nM | GI50 (PANC-1): 22 nM | GI50 (PC-3): 13 nM | GI50 (VCAP): 128 nM | tumor VEGF protein levels [1]: significantly reduced | tumor VEGF protein levels [2]: significantly reduced
